From the supplement of paper PMC10307832

Tests used:
Test in all cases: relative viability (nuclei count vs DMSO), 5 days (fraction); higher = more cells survive
Dasatinib + Lapatinib = compound: Cc1nc(Nc2ncc(C(=O)Nc3c(C)cccc3Cl)s2)cc(N2CCN(CCO)CC2)n1 [Dasatinib] + CS(=O)(=O)CCNCc1ccc(-c2ccc3ncnc(Nc4ccc(OCc5cccc(F)c5)c(Cl)c4)c3c2)o1 [Lapatinib] (partner 2 µM)
In short: (§1)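 Lung cancer cell lines were pin-tool dosed in 1536-well plates on the day after seeding, with either a lone drug or a fixed anchor-drug dose plus five library-drug doses (not always all listed) in √10 steps. Nuclei were counted on 4× images after 5 days. Relative viability is the ratio of treated-well to vehicle-well nuclei counts, with each value a median of duplicate plates.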

ALW-II-49-7 + Pemetrexed = compound: Cc1ccc(C(=O)Nc2cccc(C(F)(F)F)c2)cc1Nc1cncc(C(N)=O)c1 [ALW-II-49-7] + Nc1nc2[nH]cc(CCc3ccc(C(=O)N[C@@H](CCC(=O)O)C(=O)O)cc3)c2c(=O)[nH]1 [Pemetrexed] (partner 0.2 µM)
In short: as §1

XMD13-2 + Dasatinib = compound: C1CC1C(=O)NC2=NNC3=C2C=CC(=C3)C4=CC(=CC=C4)C(=O)NC5CC5 [XMD13-2] + Cc1nc(Nc2ncc(C(=O)Nc3c(C)cccc3Cl)s2)cc(N2CCN(CCO)CC2)n1 [Dasatinib] (partner 0.075 µM)
In short: as §1

ALW-II-49-7 + Olaparib = compound: Cc1ccc(C(=O)Nc2cccc(C(F)(F)F)c2)cc1Nc1cncc(C(N)=O)c1 [ALW-II-49-7] + O=C(c1cc(Cc2n[nH]c(=O)c3ccccc23)ccc1F)N1CCN(C(=O)C2CC2)CC1 [Olaparib] (partner 8 µM)
In short: as §1

UMC-11
relative viability (Dasatinib + Lapatinib; first compound 0.005 µM): 0.877 | relative viability (Dasatinib + Lapatinib; first compound 0.01581 µM): 0.702 | relative viability (Dasatinib + Lapatinib; first compound 0.05 µM): 0.835 | relative viability (Dasatinib + Lapatinib; first compound 0.1581 µM): 0.333 | relative viability (Dasatinib + Lapatinib; first compound 0.5 µM): 0.377 | relative viability (ALW-II-49-7 + Pemetrexed; first compound 0.08 µM): 0.856 | relative viability (ALW-II-49-7 + Pemetrexed; first compound 0.253 µM): 0.79 | relative viability (ALW-II-49-7 + Pemetrexed; first compound 0.8 µM): 0.76 | relative viability (ALW-II-49-7 + Pemetrexed; first compound 2.53 µM): 0.803 | relative viability (ALW-II-49-7 + Pemetrexed; first compound 8 µM): 0.705 | relative viability (XMD13-2 + Dasatinib; first compound 0.05 µM): 0.55 | relative viability (XMD13-2 + Dasatinib; first compound 0.1581 µM): 0.428 | relative viability (XMD13-2 + Dasatinib; first compound 0.5 µM): 0.477 | relative viability (XMD13-2 + Dasatinib; first compound 1.581 µM): 0.505 | relative viability (XMD13-2 + Dasatinib; first compound 5 µM): 0.453 | relative viability (ALW-II-49-7 + Olaparib; first compound 0.08 µM): 0.428 | relative viability (ALW-II-49-7 + Olaparib; first compound 0.253 µM): 0.428 | relative viability (ALW-II-49-7 + Olaparib; first compound 0.8 µM): 0.413 | relative viability (ALW-II-49-7 + Olaparib; first compound 2.53 µM): 0.345 | relative viability (ALW-II-49-7 + Olaparib; first compound 8 µM): 0.342
